Positions of bridges follow the written chain, without caps; N, C: chain ends. Non-standard residues stand in square brackets, D forms with d. Residues, ends and D or L forms follow the SMILES beside them. *: point of attachment. Cbz = O=C(OCc1ccccc1)*; Dap = NC[C@H](N)C(=O)O

The target in the first assay is T1, Substance-K receptor (Mesocricetus auratus, UniProt P51144).
T1 sequence (P51144 whole entry): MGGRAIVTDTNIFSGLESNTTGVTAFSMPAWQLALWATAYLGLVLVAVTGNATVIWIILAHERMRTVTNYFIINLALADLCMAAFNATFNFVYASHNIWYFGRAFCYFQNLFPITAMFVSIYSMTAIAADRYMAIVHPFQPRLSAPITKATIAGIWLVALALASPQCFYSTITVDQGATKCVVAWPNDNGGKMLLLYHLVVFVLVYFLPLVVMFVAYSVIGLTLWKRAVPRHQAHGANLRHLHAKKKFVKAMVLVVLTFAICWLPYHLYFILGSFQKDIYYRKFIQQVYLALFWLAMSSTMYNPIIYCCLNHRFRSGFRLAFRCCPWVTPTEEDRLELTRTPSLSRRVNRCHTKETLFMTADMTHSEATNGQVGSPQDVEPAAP
As to the kind of experiment: Binding affinity towards Tachykinin receptor 2 using [125I]iodohistidyl-NKA (0.1 nM)) as radioligand. On the set-up: species or system Cricetulus griseus.
By IC50 is commonly meant the concentration that inhibits the measured activity by half. A low value points to greater potency. In the case of `O=C(Cc1c[nH]c2ccccc12)N1CCC(Cc2ccccc2)C1` (stereo unspecified), the IC50 was greater than 10 µM.

Compound `CSCC[C@@H]1NC(=O)[C@H](CC(C)C)NC(=O)[C@@H]2CNC(=O)C[C@H](NC1=O)C(=O)N[C@@H](Cc1c[nH]c3ccccc13)C(=O)N[C@@H](Cc1ccccc1)C(=O)N2` (cyclo(DWF[Dap]LM); lactam 1-4) came in with an IC50 greater than 10 µM.

As to Ac-LMQWFG-OH, the IC50 was 19.8 µM.

Regarding `NC(=O)[C@H](Cc1ccccc1)NC(=O)[C@H](Cc1c[nH]c2ccccc12)NC(=O)OCc1ccccc1` (Cbz-Trp-Phe-NH2), the IC50 stood at 5.2 µM.

Another assay has as its target T2, Neuromedin-K receptor (Homo sapiens, UniProt P29371).
T2 sequence (P29371 whole entry): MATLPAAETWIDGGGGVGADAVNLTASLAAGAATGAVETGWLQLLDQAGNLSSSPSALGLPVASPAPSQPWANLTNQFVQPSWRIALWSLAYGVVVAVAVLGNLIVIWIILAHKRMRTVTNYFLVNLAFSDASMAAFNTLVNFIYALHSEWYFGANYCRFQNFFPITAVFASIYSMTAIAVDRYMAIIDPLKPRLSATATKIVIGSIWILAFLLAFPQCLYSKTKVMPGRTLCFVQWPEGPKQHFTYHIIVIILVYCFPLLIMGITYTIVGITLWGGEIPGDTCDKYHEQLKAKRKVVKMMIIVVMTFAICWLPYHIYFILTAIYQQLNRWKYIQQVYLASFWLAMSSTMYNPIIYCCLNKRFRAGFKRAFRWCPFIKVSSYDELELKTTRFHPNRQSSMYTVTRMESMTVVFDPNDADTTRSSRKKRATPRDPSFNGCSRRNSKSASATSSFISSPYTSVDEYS
As to the kind of experiment: Binding affinity towards Tachykinin receptor 3 using [125I]-[Mephe7] NKB as radioligand.
`NC(=O)[C@H](Cc1ccccc1)NC(=O)[C@H](Cc1c[nH]c2ccccc12)NC(=O)OCc1ccccc1` (Cbz-Trp-Phe-NH2): the IC50 is 9.3 µM.

Regarding `O=C(Cc1ccccc1)N1CCC(Cc2ccccc2)C1` (stereo unspecified), the IC50 was found to be 9.4 µM.
